# Laboratory results taken from publication PMC7055873 (PLoS ONE, 2020).
# Entries after “also recorded” stand apart in the source; their conditions may differ.
# Target: H275Y mutant A(H1N1)pdm09 virus, neuraminidase (NA) (Influenza A virus, UniProt A0A0X9QTS2, H275Y)
SMILES,susceptibility interpretation,IC50
"CCOC(=O)C1=C[C@@H](OC(CC)CC)[C@H](NC(C)=O)[C@@H](N)C1 [Oseltamivir, oseltamivir]",highly reduced inhibition; also recorded: high reduced inhibition,–
"CCC(CC)[C@H](NC(C)=O)[C@@H]1[C@H](O)[C@@H](C(=O)O)C[C@H]1N=C(N)N [Peramivir, peramivir]",highly reduced inhibition; also recorded: high reduced inhibition,0.0219 µM
